In patent US20170348258A1, “3-Amino Benzamide Derivative Serving As B-Lactam Auxiliary Antibiotic, Preparation Method and Use Thereof” (THE HONG KONG POLYTECHNIC UNIVERSITY, priority 2014, published 2017):

Key:
[1] = tested on: L929 (mouse fibroblast cell line); test: Cytotoxicity test (MTS/PMS); type: cell-based; settings: L929, 72 h, 3 days at 37° C.
Description: (§1) The bacterial strains used in microbial susceptibility test were E. coli, S. aureus 29213 and B. subtilis 168. E. coli and S. aureus 29213 were obtained from the laboratory of the Hong Kong Polytechnic University. B. subtilis 168 was purchased from American Type Culture Collection (USA). The mammalian cell lines L929 (mouse peritoneal fibroblast), LCC6 (a wild type breast cancer cell line), LCC6MDR (P-gp over-expressed breast cancer cell line) were stocks in our department. Nutrient Agar, tryptone and yeast extract were purchased from Oxoid Limited (Nepean, Ontario, Canada). Luria-Bertani (LB) medium was prepared from 2 g tryptone, 1 g yeast extract, and 2 g sodium chloride in 200 ml deionized water and sterilized. Müller-Hinton broth (MHB), cation-adjusted Müller-Hinton broth (MHB) and trypticase soy broth (TSB) for microbial susceptibility test were purchased from Becton, Dickinson and Company (New Jersey, USA). A microplate reader (Bio-Rad Laboratories Model 680) is used to measure bacterial growth and cytotoxicity. An Olympus FSX100® Bio Imaging Navigator Microscope was used to observe the morphology of B. subtilis cell. The cell lines used in cytotoxicity test were stocks in our department. In this assay, a mouse fibroblast cell line (L929), a wild type breast cancer cell line (LCC6) and a P-gp-over-expressed breast cancer cell line (LCC6MDR) were mixed with compounds of various concentrations and made up to a final volume of 100 μL in 96-well plates. The cells were then incubated at 37° C. for 3 days. […] The MTS/PMS mixture (10 μL) was added into each well, and the plate was incubated at 37° C. for 2 hours. The absorbance at 490 nm was then measured with a microplate absorbance reader (Bio-Rad). The IC50 values were calculated using GraphPad (Prism 4.0). The selective index of each compound was calculated from the ratio between the toxicity level of L929 and the MIC value of S. aureus 29213. […] Two promising compounds […] were chosen to test on three mammalian cell lines.

[2] = tested on: LCC6 (wild type breast cancer cell line); test: Cytotoxicity test (MTS/PMS); type: cell-based; settings: LCC-6, 72 h; 3 days at 37° C.
Description: as §1

[3] = biological target: T1, S. aureus FtsZ (Staphylococcus aureus, UniProt P0A031); test: Transmission electron microscopy of FtsZ polymer morphology; type: biochemical; settings: 100 μM compound, GTP 1 mM, 37° C. 15 minutes
T1 construct: inferred from capture on a nickel chelating column and imidazole elution; made in house; host or cells: E. coli BL21
T1 sequence (P0A031 1-390): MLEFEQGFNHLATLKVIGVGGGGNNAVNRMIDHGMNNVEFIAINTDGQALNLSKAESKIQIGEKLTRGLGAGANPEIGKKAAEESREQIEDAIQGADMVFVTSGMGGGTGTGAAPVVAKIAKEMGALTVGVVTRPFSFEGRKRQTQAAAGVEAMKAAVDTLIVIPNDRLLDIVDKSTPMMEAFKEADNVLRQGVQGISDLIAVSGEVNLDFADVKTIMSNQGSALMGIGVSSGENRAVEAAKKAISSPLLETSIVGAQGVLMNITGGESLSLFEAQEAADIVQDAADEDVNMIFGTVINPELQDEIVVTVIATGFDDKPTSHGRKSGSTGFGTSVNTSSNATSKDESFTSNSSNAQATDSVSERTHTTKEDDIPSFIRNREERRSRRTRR
Procedure: TEM provides a direct observation of FtsZ polymer morphology. Two promising compounds F332 and F361 were chosen for testing. S. aureus FtsZ ([…]) was incubated with the compounds at different concentrations in 50 mM MOPS buffer (pH 6.5) at 25° C. for 10 minutes. The control contained 1% DMSO only. KCl (final concentration: 50 mM) and MgCl2 (final concentration: 5 mM) were then added to the mixture. The mixture was incubated with GTP (final concentration: 1 mM) at 37° C. for 15 minutes. 10 μL reaction mixtures were applied on a glow-discharged Formvar carbon-coated copper grid (400 meshes) at 25° C. for 10 minutes. 10 μL of 0.5% phosphotungistic acid (PTA) was applied on the copper grid in order to negatively stain the proteins. The copper grid was allowed to air dry overnight.

[4] = tested on: MRSA strain USA300#757; test: Fractional Inhibitory Concentration Index (FICI) determination; type: cell-based, S. aureus
Procedure: The bacterial strains used in this study were clinically isolated MRSA strains USA300#757 and #2960 which were obtained from our laboratory. Determination of the Fractional Inhibitory Concentration Index (FICI) was adopted by the Müller-Hinton broth (MHB) dilution method as previously described. Twelve serial two-fold dilutions of PC190723, F332 and F361 were prepared in the 96-well microplate with concentration ranging from 512 to 0.25 μg/mL. […] Lastly, the compounds and the β-lactams were mixed at a 1:1 ratio and subjected to two-fold dilution as described previously. Each microplate well contained 100 μL of MHB supplemented with compounds alone, β-lactams alone or the mixture of compounds and β-lactams. Overnight cultures of S. aureus in the Müller-Hinton broth was diluted to OD595 of 0.08-0.1 in saline and added in each of the microplate well. The plates were incubated at 37° C. for 20 h. All tests were performed in duplicate and the inhibition of bacterial growth was determined by visualization. The FICI of compounds and β-lactams were calculated as followed: FICI=(MIC of combination of compound and β-lactam/MIC of compound alone)+(MIC of combination of compound and β-lactam/MIC of β-lactam alone).

[5] = tested on: MRSA strain USA300#2960; test: as above; type: cell-based, S. aureus
Procedure: The bacterial strains used in this study were clinically isolated MRSA strains USA300#757 and #2960 which were obtained from our laboratory. Determination of the Fractional Inhibitory Concentration Index (FICI) was adopted by the Müller-Hinton broth (MHB) dilution method as previously described. Twelve serial two-fold dilutions of PC190723, F332 and F361 were prepared in the 96-well microplate with concentration ranging from 512 to 0.25 μg/mL. A series of two-fold dilutions of ampicillin, cloxacillin and cefuroxime were also prepared following the same procedure. Lastly, the compounds and the β-lactams were mixed at a 1:1 ratio and subjected to two-fold dilution as described previously. Each microplate well contained 100 μL of MHB supplemented with compounds alone, β-lactams alone or the mixture of compounds and β-lactams. Overnight cultures of S. aureus in the Müller-Hinton broth was diluted to OD595 of 0.08-0.1 in saline and added in each of the microplate well. The plates were incubated at 37° C. for 20 h. All tests were performed in duplicate and the inhibition of bacterial growth was determined by visualization. The FICI of compounds and β-lactams were calculated as followed: FICI=(MIC of combination of compound and β-lactam/MIC of compound alone)+(MIC of combination of compound and β-lactam/MIC of β-lactam alone).

Compound	IC50 [1] [µM]	IC50 [2] [µM]	FtsZ polymer morphology (TEM) [3]	FICI with Ampicillin [4]	FICI with Cefotaxime [4]	FICI with Cefuroxime [4]	FICI with Cloxacillin [4]	FICI with Meropenem [4]	FICI with Ampicillin [5]	FICI with Cefotaxime [5]	FICI with Cefuroxime [5]	FICI with Cloxacillin [5]	FICI with Meropenem [5]
CCCCCCCCCNc1ccc(F)c(C(N)=O)c1F [Compound F332, 2,6-difluoro-3-(nonylamino)benzamide]	> 100	78	relatively short and straight single strand FtsZ protofilaments	0.52	0.13	0.09	1.02	1.06	0.28	0.38	0.38	1.02	0.28
CCCCCCCCCN(C)c1ccc(F)c(C(N)=O)c1F [Compound F361, 2,6-difluoro-3-(methyl(nonyl)amino)benzamide]	60	60	relatively short and straight single strand FtsZ protofilaments		0.38			1.13		1.00			0.28
